# From US7414041B2 (Trustees Of Tufts College, priority 1991, dated 2008)
# Read-outs that look alike come from different tables or passages of the source.
# Assays:
# E. faecalis (Tet M) = conditions: E. faecalis (Class M)
# [1] = system: E. coli Tc^s (MI 300-225); test: susceptibility testing MIC/MLC, drug alone; format: cell-based; conditions: Tc^s
# S. aureus Tc^s (RN450) = test: susceptibility testing MIC/MLC, drug alone; format: cell-based; conditions: for MLC: kills 99.9%
# [2] = system: E. faecalis Tc^s (ATCC9790r); test: susceptibility testing MIC/MLC, drug alone; format: cell-based
# [3] = system: E. coli Class β Tc^r (DI-209); format: cell-based
# [4] = system: E. coli Class A Tc^r (DI-299); format: cell-based
# [5] = system: E. faecalis Tc^r (L) (ATCC9790r/Tet L); format: cell-based; conditions: for MLC: E. faecalis Tet L; for MIC: Tc^r (L)
# [6] = system: E. faecalis Tc^r (M) (ATCC9790r/Tet M); format: cell-based
# S. aureus Tc^r (RN4250) = format: cell-based
# [7] = biological target: T1, TET proteins responsible for tetracycline efflux (Class B tetracycline resistance determinant, strain D1-209) (Escherichia coli, UniProt P02980); test: biochemical; parameters: species or system E. coli
# T1 construct: Everted vesicles, to which the TET proteins responsible for tetracycline efflux are attached; endogenous in cells; host or cells: E. coli strain D1-209 (everted membrane vesicles)
# S. aureus 4250 (Tet K) = test: MIC/MLC chart, analog with and without doxycycline; format: cell-based
# E. faecalis 211 (Tet M) = test: MIC/MLC chart, analog with and without doxycycline; format: cell-based;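 further: broth checkerboard of two-fold drug dilutions, alone and mixed with doxycycline, bacteria near 5×10^5 cells/ml, 18 h incubation at 37 °C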
# E. faecalis 158 (Tet L) = test: MIC/MLC chart, analog with and without doxycycline; format: cell-based
# E. coli D1-299 (Tet A) = format: cell-based;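 further: E. coli at roughly 5×10^5 cells/ml in L broth, analog and doxycycline alone or mixed in two-fold dilutions from 50 to under 1 µg/ml, 18 h at 37 °C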
# [8] = uptake at 2.5 minutes, about 4 μM 3H-tetracycline, read-out: IC50
# [9] = doxycycline alone 1.56 μg/ml (Doxy Control)
# [10] = doxycycline alone 3.12 μg/ml (Doxy Control)
# [11] = doxycycline alone 6.25 μg/ml (Doxy Control)
# [12] = doxycycline alone 12.5 μg/ml (Doxy Control)
# T1 sequence (P02980 whole entry): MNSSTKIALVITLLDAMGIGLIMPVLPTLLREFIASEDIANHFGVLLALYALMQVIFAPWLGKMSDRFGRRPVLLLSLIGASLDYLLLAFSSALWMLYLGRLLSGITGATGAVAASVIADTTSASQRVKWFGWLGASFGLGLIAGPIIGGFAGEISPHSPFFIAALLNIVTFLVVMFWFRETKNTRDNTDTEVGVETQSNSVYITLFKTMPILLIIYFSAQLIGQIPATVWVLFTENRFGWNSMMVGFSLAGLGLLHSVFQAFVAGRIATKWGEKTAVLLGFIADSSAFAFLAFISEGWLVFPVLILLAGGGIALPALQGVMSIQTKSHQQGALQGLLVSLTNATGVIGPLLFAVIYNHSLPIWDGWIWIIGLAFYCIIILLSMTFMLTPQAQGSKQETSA
molecule,measurement,setting,value
6-deoxy-13-(benzyl mercapto) tetracycline,synergistic activity with tetracycline,E. faecalis (Tet M),"little, if any synergistic activity"
same,MIC,[1]; 1st column,16 ± 6 µg
same,MIC,[1]; 2nd column,26 ± 6 µg
same,MIC,S. aureus Tc^s (RN450),0.2 ± 0.1 µg
same,MLC,S. aureus Tc^s (RN450),10 ± 2 µg
same,MIC,[2]; 1st column,0.6 ± 0.25 µg
same,MIC,[2]; 2nd column,8 ± 0.26 µg
same,MIC,[3]; 1st column,30 ± 0.26 µg
same,MIC,[3]; 2nd column,60 ± 10 µg
same,MIC,[4]; 1st column,46 ± 20 µg
same,MIC,[4]; 2nd column,160 ± 60 µg
same,MLC,[5],8 ± 2 µg/mL
same,MIC,[5]; 1st column,0.76 ± 0.26 µg
same,MIC,[6]; 1st column,3.6 ± 1 µg
6-deoxy-13-(cyclohexyl mercapto) tetracycline,synergistic activity with tetracycline,E. faecalis (Tet M),"little, if any synergistic activity"
same,MIC,[1]; 1st column,60 ± 10 µg
same,MIC,[1]; 2nd column,120 µg
same,MIC,S. aureus Tc^s (RN450),2.5 ± 1.25 µg
same,MLC,S. aureus Tc^s (RN450),10 ± 5 µg
same,MIC,[2]; 1st column,1.26 ± 0.26 µg
same,MIC,[2]; 2nd column,8 µg
same,MIC,[4]; 1st column,100 ± 0.26 µg
same,MIC,[4]; 2nd column,>200 µg
same,MLC,[5],8 ± 2 µg/mL
same,MIC,[5]; 1st column,1.6 ± 0.6 µg
same,MIC,[6]; 1st column,2.6 ± 0.6 µg
6-deoxy-13-(cyclopentyl mercapto) tetracycline,synergistic activity with tetracycline,E. faecalis (Tet M),"little, if any synergistic activity"
same,MIC,[1]; 1st column,20 µg
same,MIC,[1]; 2nd column,60 µg
same,MIC,S. aureus Tc^s (RN450),1 µg
same,MLC,S. aureus Tc^s (RN450),5 µg
same,MIC,[2]; 1st column,1 ± 0.26 µg
same,MIC,[2]; 2nd column,10 ± 4 µg
same,MLC,S. aureus Tc^r (RN4250); resistant S. aureus,6 ± 2 µg/mL
same,MIC,[3]; 1st column,60 ± 40 µg
same,MIC,[3]; 2nd column,100 ± 60 µg
same,MIC,[4]; 1st column,40 ± 0.26 µg
same,MIC,[4]; 2nd column,60 µg
same,MIC,[5]; 1st column,1 ± 0.6 µg
same,MIC,[6]; 1st column,3 ± 1 µg
CCCCCCCC(=O)O[C@H]1C2C(=C(O)C3(O)C(=O)C(C(N)=O)=C(O)[C@@H](N(C)C)C13)C(=O)c1c(O)cccc1C2C (some centres unmarked) [Cmpd 4],IC50,[7],9.3 µM
CC1c2cccc(O)c2C(=O)C2=C(O)C3(O)C(=O)C(C(N)=O)=C(O)[C@@H](N(C)C)C3[C@@H](OC(=O)CCC(=O)O)C21 (some centres unmarked) [Cmpd 6],IC50,[7],2 µM
CC1c2cccc(O)c2C(=O)C2=C(O)C3(O)C(=O)C(C(N)=O)=C(O)[C@@H](N(C)C)C3[C@@H](OCCCN)C21 (some centres unmarked) [Cmpd 7],IC50,[7]; [8],6.4 µM
CN(C)[C@@H]1C(O)=C(C(N)=O)C(=O)C2(O)C(O)=C3C(=O)c4c(O)cccc4C(CSC4CCCC4)C3[C@H](OC(=O)C3CCCCC3)C12 (some centres unmarked) [Cmpd 9],IC50,[7],> 30 µM
CN(C)[C@@H]1C(O)=C(C(N)=O)C(=O)C2(O)C(O)=C3C(=O)c4c(O)cccc4C(CSC4CCCC4)C3[C@H](OC(=O)C3CCCC3)C12 (some centres unmarked) [Cmpd 10],IC50,[7]; [8],> 30 µM
"C=C1c2cccc(O)c2C(=O)C2=C(O)C3(O)C(=O)C(C(N)=O)=C(O)C(N(C)C)C3C(OC(=O)C3CC3)C12 (centres unmarked) [Cmpd 11, 5 cyclopropanoate methacycline]",IC50,[7],9.4 µM
"C[C@H]1c2cccc(O)c2C(O)=C2C(=O)[C@]3(O)C(O)=C(C(N)=O)C(=O)[C@@H](N(C)C)[C@@H]3[C@@H](O)[C@@H]21 [Doxy, Doxycycline, reference compound]",MIC/MLC chart symbol,"S. aureus 4250 (Tet K); Chart 6B, Doxy Control (doxycycline alone), μg/ml = number in line above",+
same,growth / no growth (MIC) / killing (MLC) symbol,S. aureus 4250 (Tet K); doxy alone 1.56 μg/ml,+
same,growth / no growth (MIC) / killing (MLC) symbol,S. aureus 4250 (Tet K); doxy alone 3.12 μg/ml,+
same,growth / no growth (MIC) / killing (MLC) symbol,S. aureus 4250 (Tet K); doxy alone 6.25 μg/ml,+
same,growth / no growth (MIC) / killing (MLC) symbol,S. aureus 4250 (Tet K); doxy alone 12.5 μg/ml,+
same,MIC/MLC chart: growth or killing,S. aureus 4250 (Tet K); [9],+
same,MIC/MLC chart: growth or killing,S. aureus 4250 (Tet K); [10],+
same,MIC/MLC chart: growth or killing,S. aureus 4250 (Tet K); [11],+
same,MIC/MLC chart: growth or killing,S. aureus 4250 (Tet K); [12],◯
same,MIC/MLC chart symbol,"E. faecalis 211 (Tet M); Chart 6D, Doxy Control (doxycycline alone), μg/ml = number in line above",↓ and +
same,growth / no growth (MIC) / killing (MLC) symbol,E. faecalis 211 (Tet M); doxy alone 1.56 μg/ml,+
same,growth / no growth (MIC) / killing (MLC) symbol,E. faecalis 211 (Tet M); doxy alone 3.12 μg/ml,+
same,growth / no growth (MIC) / killing (MLC) symbol,E. faecalis 211 (Tet M); doxy alone 6.25 μg/ml,+
same,growth / no growth (MIC) / killing (MLC) symbol,E. faecalis 211 (Tet M); doxy alone 12.5 μg/ml,+
same,growth / no growth (MIC) / killing (MLC) symbol,E. faecalis 211 (Tet M); doxy alone 25 μg/ml,↓
same,MIC/MLC chart: growth or killing,E. faecalis 211 (Tet M); [9],+
same,MIC/MLC chart: growth or killing,E. faecalis 211 (Tet M); [10],+
same,MIC/MLC chart: growth or killing,E. faecalis 211 (Tet M); [11],+
same,MIC/MLC chart: growth or killing,E. faecalis 211 (Tet M); [12],+
same,MIC/MLC chart symbol,"E. faecalis 158 (Tet L); Chart 6C, Doxy Control (doxycycline alone), μg/ml = number in line above",+
same,growth / no growth (MIC) / killing (MLC) symbol,E. faecalis 158 (Tet L); doxy alone 1.56 μg/ml,+
same,growth / no growth (MIC) / killing (MLC) symbol,E. faecalis 158 (Tet L); doxy alone 3.12 μg/ml,+
same,growth / no growth (MIC) / killing (MLC) symbol,E. faecalis 158 (Tet L); doxy alone 6.25 μg/ml,+
same,growth / no growth (MIC) / killing (MLC) symbol,E. faecalis 158 (Tet L); doxy alone 12.5 μg/ml,↓
same,MIC/MLC chart: growth or killing,E. faecalis 158 (Tet L); [9],+
same,MIC/MLC chart: growth or killing,E. faecalis 158 (Tet L); [10],+
same,MIC/MLC chart: growth or killing,E. faecalis 158 (Tet L); [11],+
same,MIC/MLC chart symbol,"E. coli D1-299 (Tet A); Chart 6A, Doxy Control (doxycycline alone), μg/ml = number in line above",◯ and +
same,growth / no growth (MIC) / killing (MLC) symbol,E. coli D1-299 (Tet A); doxy alone 1.56 μg/ml,+
same,growth / no growth (MIC) / killing (MLC) symbol,E. coli D1-299 (Tet A); doxy alone 3.12 μg/ml,+
same,growth / no growth (MIC) / killing (MLC) symbol,E. coli D1-299 (Tet A); doxy alone 6.25 μg/ml,+
same,growth / no growth (MIC) / killing (MLC) symbol,E. coli D1-299 (Tet A); doxy alone 12.5 μg/ml,+
same,growth / no growth (MIC) / killing (MLC) symbol,E. coli D1-299 (Tet A); doxy alone 25 μg/ml,◯
same,MIC/MLC chart: growth or killing,E. coli D1-299 (Tet A); [9],+
same,MIC/MLC chart: growth or killing,E. coli D1-299 (Tet A); [10],+
same,MIC/MLC chart: growth or killing,E. coli D1-299 (Tet A); [11],+
same,MIC/MLC chart: growth or killing,E. coli D1-299 (Tet A); [12],+
same,MIC/MLC chart: growth or killing,E. coli D1-299 (Tet A); doxycycline alone 25.0 μg/ml (Doxy Control),+
CC(C)SCC1c2cccc(O)c2C(=O)C2=C(O)C3(O)C(=O)C(C(N)=O)=C(O)C(N(C)C)C3C(O)C21 (centres unmarked) [Isopropyl],MIC,[1]; 1st column,22 ± 2 µg
same,MIC,[1]; 2nd column,60 µg
same,MIC,S. aureus Tc^s (RN450),0.5 ± 0.25 µg
same,MLC,S. aureus Tc^s (RN450),6 ± 2 µg
same,MIC,[2]; 1st column,3 ± 1 µg
same,MIC,[2]; 2nd column,20 ± 0.26 µg
same,MIC,S. aureus Tc^r (RN4250); Tc^r RN4250,4.5 ± 0.5 µg
same,MLC,"S. aureus Tc^r (RN4250); Tc^r RN4250, kills 99.9%",8 µg
same,MIC,[3]; 1st column,35 ± 6 µg
same,MIC,[3]; 2nd column,46 ± 16 µg
same,MIC,[4]; 1st column,46 ± 6 µg
same,MIC,[4]; 2nd column,60 µg
same,MIC,[5]; 1st column,3 ± 1 µg
same,MIC,[5]; 2nd column,100 ± 0.25 µg
same,MIC,[6]; 2nd column,>200 µg
"CN(C)c1ccc(O)c2c1C[C@H]1C[C@H]3[C@H](N(C)C)C(=O)C(C(N)=O)=C(O)[C@@]3(O)C(=O)C1=C2O [Minocycline, reference compound]",MIC,[1]; 1st column,<4 µg
same,MIC,[1]; 2nd column,<4 µg
same,MIC,S. aureus Tc^s (RN450),<0.25 µg
same,MLC,S. aureus Tc^s (RN450),8 µg
same,MIC,[2]; 1st column,<0.26 µg
same,MIC,[2]; 2nd column,>40 µg
same,MIC,S. aureus Tc^r (RN4250); Tc^r RN4250,<0.25 µg
same,MLC,"S. aureus Tc^r (RN4250); Tc^r RN4250, kills 99.9%",>80 µg
same,MIC,[3]; 1st column,6 ± 2 µg
same,MIC,[3]; 2nd column,30 ± 10 µg
same,MIC,[4]; 1st column,<4 µg
same,MIC,[4]; 2nd column,20 µg
same,MIC,[5]; 1st column,<0.26 µg
same,MIC,[5]; 2nd column,>80 µg
same,MIC,[6]; 1st column,10 µg
same,MIC,[6]; 2nd column,>80 µg
"CN(C)C1C(O)=C(C(N)=O)C(=O)C2(O)C(O)=C3C(=O)c4c(O)cccc4C(C)(O)C3CC12 (centres unmarked) [Tetracycline, 4-(Dimethylamino)-1,4,4a,5,5a,6-11,12a-octahydro-3,6,10,12,12a-pentahydroxy-6-methyl-1-11-dioxo-2-naphth acenecarboxamide, reference compound]",MIC,[1]; 1st column,0.6 ± 0.26 µg
same,MIC,[1]; 2nd column,40 ± 0.26 µg
same,MIC,S. aureus Tc^s (RN450),0.75 ± 0.25 µg
same,MLC,S. aureus Tc^s (RN450),>6 µg
same,MIC,[2]; 1st column,0.26 µg
same,MIC,[2]; 2nd column,>200 µg
same,MIC,S. aureus Tc^r (RN4250); Tc^r RN4250,90 ± 10 µg
same,MLC,"S. aureus Tc^r (RN4250); Tc^r RN4250, kills 99.9%",100 µg
same,MIC,[3]; 1st column,>200 µg
same,MIC,[3]; 2nd column,>200 µg
same,MIC,[4]; 1st column,160 ± 0.26 µg
same,MIC,[4]; 2nd column,200 µg
same,MIC,[5]; 1st column,90 ± 10 µg
same,MIC,[5]; 2nd column,>300 µg
same,MIC,[6]; 1st column,100 µg
same,MIC,[6]; 2nd column,300 µg
